Measurements taken from patent US20140081017A1, “Histone Deacetylase Inhibitors for Enhancing Activity of Antifungal Agents” (METHYLGENE INC., priority 2012, published 2014).
≈ marks a conversion by molar mass, not a printed value. Read-outs that look alike come from different tables or passages of the source.

How the values were obtained:
Candida albicans = test: Minimal Inhibitory Concentration (MIC) assay, broth microdilution per CLSI; assay type: cell-based; conditions: Candida albicans, read-out: Minimum Inhibitory Concentrations against Yeast Isolates, Candida albicans;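 further: two read times 24 hr and 48 hr of incubation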
Procedure, shortened: (§1)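 Following CLSI procedure, compounds dissolved in DMSO on the assay day are diluted twofold and added to MOPS-buffered RPMI at pH 7.0. Saline suspensions of the yeasts, matched to 0.5 McFarland, are diluted 1:100 and inoculated, then plates incubate at 35° C for about 24-48 hr.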

Candida glabrata = test: as above; assay type: cell-based; conditions: Nakaseomyces glabratus, read-out: Minimum Inhibitory Concentrations against Yeast Isolates, Candida glabrata;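 further: two read times 24 hr and 48 hr of incubation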
Procedure, shortened: as §1

Candida parapsilosis = test: as above; assay type: cell-based; conditions: Lodderomyces parapsilosis, read-out: Minimum Inhibitory Concentrations against Yeast Isolates, Candida parapsilosis;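 further: two read times 24 hr and 48 hr of incubation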
Procedure, shortened: as §1

C. glabrata = test: Checkerboard FIC assay in combination with fluconazole (MIC alone and in combination, FICI); assay type: cell-based, Candida glabrata; conditions: for FICI of combination resulting in fluconazole MIC of: 2 ug/mL / FICI of combination resulting in fluconazole MIC of: 4 ug/mL / FICI of combination resulting in fluconazole MIC of: 8 ug/mL: FICI calculated using a fluconazole MIC of 16 μg/mL; for FICI of combination resulting in fluconazole MIC of: 2 ug/mL (value in parenthesis) / FICI of combination resulting in fluconazole MIC of: 4 ug/mL (value in parenthesis) / FICI of combination resulting in fluconazole MIC of: 8 ug/mL (value in parenthesis): FICI using a fluconazole MIC of 128 μg/mL; for MIC: Nakaseomyces glabratus; for Multiple of compound MIC to synergize fluconazole MIC to 2 ug/mL / Multiple of compound MIC to synergize fluconazole MIC to 4 ug/mL / Multiple of compound MIC to synergize fluconazole MIC to 8 ug/mL: concentration in combination as multiple of the compound's MIC alone; for Multiple of compound MIC to synergize fluconazole MIC to 2 ug/mL: fluconazole MIC 2 ug/mL; for Multiple of compound MIC to synergize fluconazole MIC to 4 ug/mL: fluconazole MIC 4 ug/mL; for Multiple of compound MIC to synergize fluconazole MIC to 8 ug/mL: fluconazole MIC 8 ug/mL; for Concentration of Methylgene compound to synergize fluconazole MIC to 2 ug/mL / Concentration of Methylgene compound to synergize fluconazole MIC to 4 ug/mL / Concentration of Methylgene compound to synergize fluconazole MIC to 8 ug/mL: in combination with fluconazole; for Concentration of Methylgene compound to synergize fluconazole MIC to 2 ug/mL: fluconazole MIC lowered to 2 ug/mL; for Concentration of Methylgene compound to synergize fluconazole MIC to 4 ug/mL: fluconazole MIC lowered to 4 ug/mL; for Concentration of Methylgene compound to synergize fluconazole MIC to 8 ug/mL: fluconazole MIC lowered to 8 ug/mL
Procedure, shortened: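 C. glabrata was tested by CLSI broth microdilution checkerboard, crossing 2-fold dilutions of compound with 2-fold dilutions of fluconazole. The medium was RPMI with 0.165 M MOPS at pH 7.0, inoculated from a 0.5 McFarland suspension diluted 1:100, then incubated about 48 h at 35 °C. Single-agent MICs gave the FIC and FICI values.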

[1] = 24 hr reading (first value of cell 24 hr/48 hr)
[2] = 48 hr reading (second value of cell 24 hr/48 hr)
[3] = MIC of the example compound alone against C. glabrata in the checkerboard assay, approximately 48 hr, read-out: Methylgene MIC
[4] = test compound alone, C. glabrata, approx. 48 hr at 35° C., read-out: Compound MIC

| Compound | MIC (Candida albicans; [1]) | MIC (Candida albicans; [2]) | MIC (Candida glabrata; [1]) | MIC (Candida glabrata; [2]) | MIC (Candida parapsilosis; [1]) | MIC (Candida parapsilosis; [2]) | FICI of combination resulting in fluconazole MIC of: 2 ug/mL (C. glabrata; C. glabrata) | FICI of combination resulting in fluconazole MIC of: 4 ug/mL (C. glabrata; C. glabrata) | FICI of combination resulting in fluconazole MIC of: 8 ug/mL (C. glabrata; C. glabrata) | FICI of combination resulting in fluconazole MIC of: 2 ug/mL (value in parenthesis) (C. glabrata; C. glabrata) | FICI of combination resulting in fluconazole MIC of: 4 ug/mL (value in parenthesis) (C. glabrata; C. glabrata) | FICI of combination resulting in fluconazole MIC of: 8 ug/mL (value in parenthesis) (C. glabrata; C. glabrata) | MIC (C. glabrata; [3]) | MIC (C. glabrata; [4]) | Multiple of compound MIC to synergize fluconazole MIC to 2 ug/mL (C. glabrata) | Multiple of compound MIC to synergize fluconazole MIC to 4 ug/mL (C. glabrata) | Multiple of compound MIC to synergize fluconazole MIC to 8 ug/mL (C. glabrata) | Concentration of Methylgene compound to synergize fluconazole MIC to 2 ug/mL (C. glabrata; C. glabrata) | Concentration of Methylgene compound to synergize fluconazole MIC to 4 ug/mL (C. glabrata; C. glabrata) | Concentration of Methylgene compound to synergize fluconazole MIC to 8 ug/mL (C. glabrata; C. glabrata) |
| --- | --- | --- | --- | --- | --- | --- | --- | --- | --- | --- | --- | --- | --- | --- | --- | --- | --- | --- | --- | --- |
| CC(=O)Nc1ccc(CCCCc2ccc(CC(=O)NO)cc2)cc1 [Example 39, 2-(4-(4-(4-acetamidophenyl)butyl)phenyl)-N-hydroxyacetamide] | > 8 µg/mL | > 8 µg/mL | > 8 µg/mL | > 8 µg/mL | > 8 µg/mL | > 8 µg/mL | 0.375 | 0.375 | 0.563 | 0.266 | 0.156 | 0.125 | 16 µg/mL | 16 µg/mL | (¼x) | (⅛x) | ( 1/16x) | 4 µg/mL | 2 µg/mL | 1 µg/mL |
| COCCOCCOCC(=O)Nc1cccc(CCCCc2ccc(CC(=O)NO)cc2)c1 [Example 40, N-hydroxy-2-(4-(4-(3-(2-(2-(2-methoxyethoxy)ethoxy)acetamido)phenyl)butyl)phenyl)acetamide] | > 64 µg/mL | > 64 µg/mL | 2 µg/mL (≈ 4.36 µM) | 32 µg/mL (≈ 69.8 µM) | > 64 µg/mL | > 64 µg/mL | 0.313 | 0.250 | 0.375 | 0.266 | 0.156 | 0.188 | 16 µg/mL | 16 µg/mL | (¼x) | (⅛x) | (⅛x) | 4 µg/mL | 2 µg/mL | 2 µg/mL |
| O=C(Cc1ccc(CCCCc2cccc(NC(=O)CO)c2)cc1)NO [Example 41, N-hydroxy-2-(4-(4-(3-(2-hydroxyacetamido)phe-nyl)butyl)phenyl)acetamide] | > 32 µg/mL | > 32 µg/mL | 4 µg/mL (≈ 11.2 µM) | 16 µg/mL (≈ 44.9 µM) | > 32 µg/mL | > 32 µg/mL | 0.563 | 0.375 | 0.500 | 0.516 | 0.281 | 0.313 | 16 µg/mL | 16 µg/mL | (½x) | (¼x) | (¼x) | 8 µg/mL | 4 µg/mL | 4 µg/mL |
